Source: ChEMBL document CHEMBL1938341, “Alkylated flavanones from the bark of Cryptocarya chartacea as dengue virus NS5 polymerase inhibitors” (J Nat Prod, 2011)

How the values were obtained:
[1] = Inhibition of Dengue virus 2 NS5 polymerase-mediated RNA synthesis expressed in Escherichia coli Rosetta pLac1 cells assessed as [3H]GTP incorporation after 5 mins by scintillation counting; set-up: species or system dengue virus type 2
[2] = Inhibition of Bovine diarrhea virus NS5 polymerase-mediated RNA synthesis expressed in Escherichia coli Rosetta pLac1 cells assessed as [3H]GTP incorporation after 5 mins by scintillation counting; set-up: species or system Bovine viral diarrhea virus 1
[3] = Growth inhibition of human KB cells at 10 ug/ml; assay type: cell-based; details: read-out: GI
[4] = test system: KB; assay: Cytotoxicity against human KB cells; assay type: cell-based

| SMILES | IC50 ([1]; read-out: IC50) [µM] | IC50 [2] [µM] | IC50 [1] | inhibition at 10 ug/ml [3] [%] | IC50 [4] [µM] |
| --- | --- | --- | --- | --- | --- |
| O=C(O)CCC[C@@H](/C=C/c1ccccc1)c1c(O)cc2c(c1O)C(=O)C[C@H](c1ccccc1)O2 | 9 | > 50 | – | 11 | – |
| O=C(O)CCC[C@H](/C=C/c1ccccc1)c1c(O)cc2c(c1O)C(=O)C[C@H](c1ccccc1)O2 | 15.3 | > 50 | – | 0 | – |
| Nc1nc2c(ncn2[C@@H]2O[C@H](COP(=O)(O)OP(=O)(O)OP(=O)(O)O)C[C@H]2O)c(=O)[nH]1 | 0.02 | < 1 | – | – | – |
| O=C(O)CCC/C=C/C(c1ccccc1)c1c(O)cc2c(c1O)C(=O)CC(c1ccccc1)O2 (racemic) | 72.5 | > 50 | – | 0 | – |
| O=C(O)CCCC(/C=C/c1ccccc1)c1c(O)cc2c(c1O)C(=O)CC(c1ccccc1)O2 (racemic) | 14.8 | > 50 | – | 3.2 | – |
| O=C(O)CCC[C@H](/C=C/c1ccccc1)c1c(O)cc2c(c1O)C(=O)C[C@@H](c1ccccc1)O2 [CHARTACEONE A3] | 27 | > 50 | – | 0 | – |
| O=C(O)CCC[C@@H](/C=C/c1ccccc1)c1c(O)cc2c(c1O)C(=O)C[C@@H](c1ccccc1)O2 [CHARTACEONE A4] | 7.4 | > 50 | – | 6 | – |
| CC(=O)O[C@@]12CO[C@@H]1C[C@H](O)[C@@]1(C)C(=O)[C@H](O)C3=C(C)[C@@H](OC(=O)[C@H](O)[C@@H](NC(=O)OC(C)(C)C)c4ccccc4)C[C@@](O)([C@@H](OC(=O)c4ccccc4)[C@H]21)C3(C)C [DOCETAXEL] | – | – | – | – | 0.015 |
| O=C1C[C@@H](c2ccccc2)Oc2cc(O)cc(O)c21 [PINOCEMBRIN] | – | – | Not Active | 0 | – |

Now from value to compound, other results behind:

| IC50 ([1]; read-out: IC50) [µM] | IC50 [2] [µM] | IC50 [1] | SMILES | inhibition at 10 ug/ml [3] [%] | IC50 [4] [µM] |
| --- | --- | --- | --- | --- | --- |
| 2.4 | > 50 | – | O=C(O)CCCC(/C=C/c1ccccc1)c1c(O)c2c(c(C(/C=C/c3ccccc3)CCCC(=O)O)c1O)OC(c1ccccc1)CC2=O (racemic) | 0 | – |
| 2.9 | > 50 | – | O=C(O)CCC/C=C/C(c1ccccc1)c1c(O)c(C(/C=C/c2ccccc2)CCCC(=O)O)c(O)c2c1OC(c1ccccc1)CC2=O (racemic) | 0 | – |
| 1.8 | > 50 | – | O=C(O)CCC/C=C/C(c1ccccc1)c1c(O)c2c(c(C(/C=C/c3ccccc3)CCCC(=O)O)c1O)OC(c1ccccc1)CC2=O (racemic) | 0 | – |
| 4.2 | > 50 | – | O=C(O)CCC/C=C/C(c1ccccc1)c1c(O)c2c(c(C(/C=C/CCCC(=O)O)c3ccccc3)c1O)OC(c1ccccc1)CC2=O (racemic) | 0 | – |
